Measured values from ChEMBL document CHEMBL6182828, “Medicinal chemistry-based perspectives on thiophene and its derivatives: exploring structural insights to discover plausible druggable leads” (RSC Med Chem, 2025).

Legend:
[1] = target: Epidermal growth factor receptor (Homo sapiens, UniProt P00533); assay: Inhibition of EGFR (unknown origin)
[2] = target: Vascular endothelial growth factor receptor 2 (Homo sapiens, UniProt P35968); assay: Inhibition of VEGFR2 (unknown origin)
[3] = Antioxidant activity assessed as DPPH radical scavenging activity at 10 uM incubated for 30 mins by absorbance based assay relative to control; assay type: functional
[4] = system: Mus musculus; assay: Anti-diabetic activity against 16 hrs fasted KK/Ay mouse assessed as reduced blood glucose level at 2g/kg, po measured after 2 hrs by oral pyruvate tolerance test; assay type: functional
[5] = Half life in human, iv; assay type: ADME
[6] = Half life in po dosed human; assay type: ADME, organism-based; conditions: in vivo
[7] = system: PC-3; assay: cells; conditions: Homo sapiens
Description: Cytotoxicity against human PC-3 cells assessed as reduction in cell viability by MTT assay

[8] = system: A549; assay: cells; conditions: Homo sapiens
Description: Cytotoxicity against human A549 cells assessed as reduction in cell viability by MTT assay

[9] = system: MDA-MB-231; assay: cells; conditions: Homo sapiens
Description: Cytotoxicity against human MDA-MB-231 cells assessed as reduction in cell viability by MTT assay

[10] = system: Staphylococcus aureus; assay: Antibacterial activity against Staphylococcus aureus ATCC 25923 assessed as zone of inhibition; assay type: functional
[11] = system: Bacillus subtilis; assay: Antibacterial activity against Bacillus subtilis ATCC 6633 assessed as zone of inhibition; assay type: functional
[12] = Antioxidant activity assessed as ROS scavenging activity relative to control; assay type: functional; conditions: dose or concentration not given here
[13] = system: Bacillus subtilis; assay: Antibacterial activity against Bacillus subtilis ATCC 6633 assessed as zone of inhibition incubated for 48 hrs by agar diffusion method; assay type: functional
[14] = system: Escherichia coli; assay: Antibacterial activity against Escherichia coli ATCC 35218 assessed as zone of inhibition incubated for 48 hrs by agar diffusion method; assay type: functional
[15] = target: T1, Polyunsaturated fatty acid 5-lipoxygenase (Homo sapiens, UniProt P09917); assay: Inhibition of 5-LOX (unknown origin)
T1 sequence (P09917 whole entry): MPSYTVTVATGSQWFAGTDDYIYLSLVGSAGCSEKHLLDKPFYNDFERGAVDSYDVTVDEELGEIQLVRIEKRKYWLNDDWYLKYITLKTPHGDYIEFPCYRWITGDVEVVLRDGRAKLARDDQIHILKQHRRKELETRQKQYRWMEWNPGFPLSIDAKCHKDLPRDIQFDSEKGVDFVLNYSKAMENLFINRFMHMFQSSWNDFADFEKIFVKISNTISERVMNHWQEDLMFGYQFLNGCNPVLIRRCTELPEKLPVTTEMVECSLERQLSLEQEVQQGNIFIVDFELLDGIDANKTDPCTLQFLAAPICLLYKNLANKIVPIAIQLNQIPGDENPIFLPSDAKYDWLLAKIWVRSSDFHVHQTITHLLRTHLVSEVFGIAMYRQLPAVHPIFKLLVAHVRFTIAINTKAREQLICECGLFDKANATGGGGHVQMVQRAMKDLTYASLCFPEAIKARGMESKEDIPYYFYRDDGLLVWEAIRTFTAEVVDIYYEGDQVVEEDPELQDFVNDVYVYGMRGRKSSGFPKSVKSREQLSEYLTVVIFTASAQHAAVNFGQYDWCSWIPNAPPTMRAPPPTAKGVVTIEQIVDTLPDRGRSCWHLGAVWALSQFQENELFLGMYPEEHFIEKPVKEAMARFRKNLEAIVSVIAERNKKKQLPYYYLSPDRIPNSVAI

[16] = system: Leishmania major; assay: Antileishmanial activity against Leishmania major promastigotes MHOM/IL/80/Friedlin expressing firefly luciferase infected in rhesus monkey LLC-MK2 cells assessed as reduction in parasite growth incubated for 72 hrs by luciferase based luminescence analysis; assay type: functional, organism-based; conditions: LLC-MK2, 72 h
[17] = system: dsRNA; assay: Inhibition of double stranded RNA (unknown origin); assay type: nucleic-acid assay
[18] = Inhibition of urease (unknown origin)
[19] = system: Rattus norvegicus; assay: Anti-inflammatory activity against carrageenan-induced paw edema in Albino rat assessed as inhibition of paw edema at 50 mg/kg, po relative to control; assay type: functional; set-up: scale not given: the % may be the effect or the level left
[20] = Elimination half life in human at 5 mg/kg, po; assay type: ADME, organism-based; conditions: in vivo, read-out: LambdaZ (converted)
[21] = Antioxidant activity assessed as DPPH radical scavenging activity; assay type: functional; conditions: read-out: IC50

Vascular endothelial growth factor receptor 2, sequence (P35968 whole entry): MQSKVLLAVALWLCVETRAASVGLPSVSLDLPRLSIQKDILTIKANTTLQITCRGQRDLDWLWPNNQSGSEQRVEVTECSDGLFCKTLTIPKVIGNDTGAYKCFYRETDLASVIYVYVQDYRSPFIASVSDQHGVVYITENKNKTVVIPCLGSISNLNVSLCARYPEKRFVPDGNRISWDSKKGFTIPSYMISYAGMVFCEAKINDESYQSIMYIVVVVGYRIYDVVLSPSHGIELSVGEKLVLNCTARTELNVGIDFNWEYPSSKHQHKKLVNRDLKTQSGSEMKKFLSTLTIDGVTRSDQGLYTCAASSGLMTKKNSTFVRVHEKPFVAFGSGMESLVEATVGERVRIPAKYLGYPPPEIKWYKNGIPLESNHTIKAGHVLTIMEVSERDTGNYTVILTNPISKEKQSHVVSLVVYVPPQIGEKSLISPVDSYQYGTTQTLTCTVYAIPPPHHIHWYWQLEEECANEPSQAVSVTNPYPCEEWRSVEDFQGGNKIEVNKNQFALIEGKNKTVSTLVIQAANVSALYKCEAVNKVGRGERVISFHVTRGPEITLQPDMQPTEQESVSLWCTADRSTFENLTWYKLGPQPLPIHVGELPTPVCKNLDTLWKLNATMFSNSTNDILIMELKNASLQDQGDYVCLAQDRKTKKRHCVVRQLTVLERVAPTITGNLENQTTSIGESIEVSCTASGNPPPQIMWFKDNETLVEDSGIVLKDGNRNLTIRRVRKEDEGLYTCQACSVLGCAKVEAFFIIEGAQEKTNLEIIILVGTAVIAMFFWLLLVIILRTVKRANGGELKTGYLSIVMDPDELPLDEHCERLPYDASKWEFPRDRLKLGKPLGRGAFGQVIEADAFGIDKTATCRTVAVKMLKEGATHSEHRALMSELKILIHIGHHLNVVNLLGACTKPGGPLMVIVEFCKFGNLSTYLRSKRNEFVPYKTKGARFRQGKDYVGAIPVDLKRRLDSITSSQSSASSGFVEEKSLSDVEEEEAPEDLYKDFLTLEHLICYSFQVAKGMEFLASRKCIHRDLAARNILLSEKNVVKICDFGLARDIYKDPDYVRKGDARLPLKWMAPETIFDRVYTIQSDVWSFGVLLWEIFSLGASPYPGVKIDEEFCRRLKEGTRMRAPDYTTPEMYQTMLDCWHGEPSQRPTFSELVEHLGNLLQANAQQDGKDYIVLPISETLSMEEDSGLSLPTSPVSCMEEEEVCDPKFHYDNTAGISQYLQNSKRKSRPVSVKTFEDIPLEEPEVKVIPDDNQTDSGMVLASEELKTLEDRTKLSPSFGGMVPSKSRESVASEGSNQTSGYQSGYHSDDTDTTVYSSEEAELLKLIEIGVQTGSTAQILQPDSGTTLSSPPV
Epidermal growth factor receptor, sequence (P00533 whole entry): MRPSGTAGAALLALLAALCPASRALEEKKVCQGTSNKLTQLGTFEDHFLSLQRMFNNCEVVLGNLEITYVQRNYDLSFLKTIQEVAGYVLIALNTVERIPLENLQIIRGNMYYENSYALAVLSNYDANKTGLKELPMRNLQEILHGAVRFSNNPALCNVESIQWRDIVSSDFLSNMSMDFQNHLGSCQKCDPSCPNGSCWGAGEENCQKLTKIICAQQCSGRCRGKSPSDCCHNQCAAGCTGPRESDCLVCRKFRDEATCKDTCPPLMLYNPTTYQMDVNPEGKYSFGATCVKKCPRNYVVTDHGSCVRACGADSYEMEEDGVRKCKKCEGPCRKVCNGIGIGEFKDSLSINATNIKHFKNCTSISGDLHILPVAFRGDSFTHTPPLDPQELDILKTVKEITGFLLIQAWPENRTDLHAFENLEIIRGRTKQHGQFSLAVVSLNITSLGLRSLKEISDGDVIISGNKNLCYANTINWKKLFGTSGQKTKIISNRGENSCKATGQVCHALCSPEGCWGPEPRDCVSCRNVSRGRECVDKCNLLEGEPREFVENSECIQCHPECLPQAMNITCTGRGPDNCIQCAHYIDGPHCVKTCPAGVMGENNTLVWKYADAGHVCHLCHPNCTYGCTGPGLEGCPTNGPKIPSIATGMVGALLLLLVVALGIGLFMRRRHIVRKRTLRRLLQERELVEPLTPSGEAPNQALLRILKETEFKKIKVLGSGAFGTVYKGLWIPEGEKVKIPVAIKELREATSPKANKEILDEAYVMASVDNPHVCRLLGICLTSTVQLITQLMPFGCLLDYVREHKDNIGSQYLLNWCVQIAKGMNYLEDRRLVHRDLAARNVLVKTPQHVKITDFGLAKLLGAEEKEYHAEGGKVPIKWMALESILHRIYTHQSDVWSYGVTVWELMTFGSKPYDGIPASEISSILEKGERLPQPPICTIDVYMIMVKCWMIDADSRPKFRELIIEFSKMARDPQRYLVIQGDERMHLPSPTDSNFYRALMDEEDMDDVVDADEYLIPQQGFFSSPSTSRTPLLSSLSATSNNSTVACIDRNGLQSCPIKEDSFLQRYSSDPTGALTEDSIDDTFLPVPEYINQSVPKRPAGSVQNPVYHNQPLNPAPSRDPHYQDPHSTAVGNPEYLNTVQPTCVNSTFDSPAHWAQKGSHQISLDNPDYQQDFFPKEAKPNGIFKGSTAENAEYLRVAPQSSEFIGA

## Cc1c(NC(=O)Nc2ccc(OC(F)(F)F)cc2)sc2ccccc12
[1]
  IC50: 46.6 nM
[2]
  IC50: 11.3 nM

## Cc1cc(=O)oc2c(/C=N/NC(=O)c3sc4ccccc4c3Cl)c(O)ccc12
[3]
  inhibition: 50%

## O=C(C[S+]([O-])C(F)(F)F)c1cc2ccccc2s1 (stereo unspecified)
[4]
  Activity: <10 mmol/L

## CO[C@@]1(NC(=O)Cc2cccs2)C(=O)N2C(C(=O)O)=C(COC(N)=O)CS[C@@H]21 [CEFOXITIN]
[5]
  half-life: 0.683 h

## Cc1ccsc1C(=CCCN1CCC[C@@H](C(=O)O)C1)c1sccc1C [TIAGABINE]
[6]
  half-life: 7 h

## COc1ccsc1CNCC[C@@]1(c2ccccn2)CCOC2(CCCC2)C1 [OLICERIDINE]
[5]
  half-life: 1.3 h

## CN1C(C(=O)Nc2ccccn2)=C(O)c2sccc2S1(=O)=O [TENOXICAM]
[6]
  half-life: 72 h

## COc1cccc2c1C(=O)c1c(O)c3c(c(O)c1C2=O)C[C@@](O)(C(=O)CO)C[C@@H]3O[C@H]1C[C@H](N)[C@H](O)[C@H](C)O1 [DOXORUBICIN]
[7]
  IC50: 700 nM
[8]
  IC50: 700 nM
[9]
  IC50: 980 nM

## CNCC[C@H](Oc1cccc2ccccc12)c1cccs1 [DULOXETINE]
[6]
  half-life: 12 h

## Clc1c(-c2nnc(CNc3ccccc3)o2)sc2ccccc12
[10]
  inhibition zone (IZ): 15 mm
[11]
  inhibition zone (IZ): 16 mm

## O=C(CSc1nnc(-c2sc3ccccc3c2Cl)[nH]1)c1ccc(F)cc1
[10]
  inhibition zone (IZ): 15 mm
[11]
  inhibition zone (IZ): 16 mm

## CCOC(=O)c1c(NC(=O)c2c(NC(=O)CC#N)sc3c2CCC3)sc2c1CCCC2
[12]
  inhibition: 64.1%

## O=c1[nH]c(-c2sc3ccccc3c2Cl)nc2ccccc12
[13]
  inhibition zone (IZ): 16 mm
[14]
  inhibition zone (IZ): 12 mm

## O=C(O[C@H]1C[N+]2(CCCOc3ccccc3)CCC1CC2)C(O)(c1cccs1)c1cccs1
[6]
  half-life: 24 h

## COc1ccc2c3ccnc(C)c3n(CC3CC(c4cccs4)=NO3)c2c1 (stereo unspecified)
[15]
  IC50: 29200 nM

## COC1=C(Nc2sc3c(c2C(N)=O)CCCC3)C(=O)c2ccccc2C1=O
[12]
  inhibition: 96%

## CCOC(=O)c1c(NC(=O)c2cccc(C(F)(F)F)c2F)sc2c1CC(C)(C)NC2(C)C
[16]
  EC50: 90 nM

## CC(=O)c1ccc(NC(=O)c2sc(Nc3ccccc3)c(C(=O)Nc3ccccc3)c2N)cc1
[3]
  inhibition: 62%

## Clc1ccc(C2CC(c3ccc(Cl)s3)=NN2c2ccccc2)cc1 (stereo unspecified)
[17]
  IC50: 11000 nM

## Cc1ccc2c(c1)n(CN1CCN(c3ccccc3)CC1)c(=O)n2CN1CCN(c2ccccc2)CC1
[18]
  IC50: 110 nM

## COc1ccc2c(c1)c(CC(=O)O)c(C)n2C(=O)c1ccc(Cl)cc1 [INDOMETHACIN]
[19]
  Activity: 47.73%

## Cc1ccc([C@@H]2O[C@H](CO)[C@@H](O)[C@H](O)[C@H]2O)cc1Cc1ccc(-c2ccc(F)cc2)s1 [CANAGLIFLOZIN ANHYDROUS]
[20]
  half-life: 10.6 h

## CC(=O)CC(=O)c1cc2ccccc2s1
[4]
  Activity: <15.6 mmol/L

## CC(C(=O)O)c1ccc(C(=O)c2ccccc2)s1 (stereo unspecified) [TIAPROFENIC ACID]
[6]
  half-life: 1.5 h

## COc1cc(/C=C/C(=O)c2cc3ccccc3s2)cc(OC)c1O
[21]
  IC50: 6000 nM
